Results published in patent US11857550B2, “Benzathine analogs” (University of Pittsburgh—Of the Commonwealth System of …, priority 2012, dated 2024).

System: C57BL6 mice
Format: in vivo
Settings: 30 ug/ml in drinking water, day 5

Compound: c1ccc(-c2ccc(CNCCNCc3ccc(-c4ccccn4)cc3)cc2)nc1 [BC-1215]
- lung resistance: decreased lung resistance
